In patent US5625031A, “Peptide inhibitors of the p33^cdk2 and p34^cdc2 cell cycle regulatory kinases and human papillomavirus E7 oncoprotein” (Bristol-Myers Squibb Company, priority 1994, dated 1997):
Like-named read-outs stand apart in the source and are kept apart here. Where a SMILES comes first, the peptide text is derived from it. Where no end group is shown, it is not given here.

How the values were obtained:
p34^cdc2 [1] = target: T1, p34^cdc2 (Homo sapiens, UniProt P06493); assay: Histone H1 kinase activity of p107 30mer-sepharose bound versus immunoprecipitated p34^cdc2; assay type: biochemical; design: endogenous in cells; host or cells: HeLa
T1 sequence (P06493 whole entry): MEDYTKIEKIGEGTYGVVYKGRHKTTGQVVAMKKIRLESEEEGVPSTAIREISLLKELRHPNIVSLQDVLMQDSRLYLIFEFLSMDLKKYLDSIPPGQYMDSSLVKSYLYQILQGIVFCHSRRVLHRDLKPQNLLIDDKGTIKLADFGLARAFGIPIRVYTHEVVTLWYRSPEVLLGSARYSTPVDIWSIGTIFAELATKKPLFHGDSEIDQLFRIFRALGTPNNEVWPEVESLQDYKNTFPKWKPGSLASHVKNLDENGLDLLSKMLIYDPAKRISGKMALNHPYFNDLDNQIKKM
Experimental: (§1) Assay of p34^cdc2 Kinase Activity: Histone H1 kinase reactions were performed in 50 mM Tris, pH 8.0, 10 mM MgCl2, 0.5 mM DTT, 1 mM EGTA plus 0.1 mM ATP, 1 μCi γ-[^32 P]-ATP and 10 μg histone H1 (Boeringer Mannheim), and a source of p34^cdc2. Reactions were incubated at 30° C. for 20 minutes and stopped by the addition of protein gel sample buffer. Kinase reactions were separated by SDS-PAGE (12.5% gel). The bands were detected by autoradiography and the amount of ^32 P incorporated was quantitated using an Ambis Radioanalytic Imaging System.
In order to examine the effect of binding of p34^cdc2 to p107 30mer-sepharose on p34^cdc2 kinase activity, histone H1 kinase activities associated with p107 30mer-sepharose and immunoprecipitated p34^cdc2 were compared as follows. p34^cdc2 was bound to p107 30mer-sepharose as described in Example 2. Histone H1 kinase reactions were performed using either immunoprecipitated or p107 30mer-sepharose bound p34^cdc2. The amount of p34^cdc2 bound to p107 30mer-sepharose was compared with that contained within the immune complex by western blot. Two times the amount of immunoprecipitated p34^cdc2 used in the kinase reaction was blotted to facilitate easier detection. The amount of p34^cdc2 associated with the p107 30mer-sepharose was determined by densitometry to be ≥50 time greater than contained within the immune complexes.

p34^cdc2 [2] = target: T1, p34^cdc2; assay: Peptide inhibition of p34^cdc2 immune complex histone H1 kinase activity; assay type: biochemical; design: endogenous in cells; host or cells: HeLa; conditions: for inhibition at 50 µM: 50 μM peptide, p34^cdc2 immune complex from HeLa cells, histone H1 substrate, read-out: p34^cdc2 Inhib. (%)
Experimental: (§2) HeLa Cell Lysates: HeLa cell extracts served as a source of p34^cdc2 and p33^cdk2 and were prepared as follows. HeLa cells were lysed in 20 mM N-[2-hydroxyethyl]piperazine-N'-[2-[…]] (HEPES), pH 7.0, 150 mM NaCl, 5 mM sodium vanadate, 10 mM Na4 P2 O7, 1 mM ZnCl2, 2 mM ethylene-diaminetetraacetic acid (EDTA), 2 mM ethylene glycol-bis(β-aminoethyl ether)-N,N,N',N'-tetraacetic acid (EGTA), 1 mM dithiothreitol (DTT), 0.25% (v:v) NP-40, 1 mM Benzamidine, 1 mM phenylmethylsulfonyl fluoride (PMSF) and 20 μg/ml each: N2 S2 O3, leupeptin, Antipan and Pepstatin, followed by centrifugation to remove cell debris.
Immunoprecipitation of p34^cdc2 : Immunoprecipitation of p34^cdc2 from HeLa cell extracts was performed using previously reported procedures (Harlow et al. (1988) in: Antibodies: A Laboratory Manual, ed. Harlow and Lane, Cold Spring Harbor: Cold Spring Harbor Laboratory, pp 421-470) and anti-p34^cdc2 antibody, G6 (Gibco, BRL). Immunoprecipitation by this method yields an activated kinase complex (Draetta et al. (1988), Cell 54:17-26).
as §1
As a further test of the association of p107 with p34^cdc2, and to define the minimal sequence necessary for interaction with p34^cdc2, the effect of p107 peptides on the p34^cdc2 immune complex histone H1 kinase activity was assessed. Both amino- and carboxy-terminal deletions were introduced into the original 30 amino acid peptide (see Table 1). The peptides were synthesized by standard methods and purified by HPLC. Immune complexes were formed as described in Example 4 and resuspended in kinase buffer plus 50 μM of the respective peptide solubilized in N,N-dimethylformamide, or an equal volume of solvent. After incubating the reactions for 15 minutes on ice, histone H1 and γ-[^32 P]-ATP were added and the kinase assays were performed and quantitated as described in Example 4.
The binding affinity of the 9mer peptide for p34^cdc2 was approximated by relating the percent inhibition of histone H1 kinase activity to peptide concentration. Reactions were performed as described in Example 4. The percent inhibition was quantitated using an Ambis Radioanalytic Imaging System. The percent inhibition was plotted versus the peptide concentration. In calculating a binding constant, it was assumed that the concentration of substrate and peptide were in vast excess of the p34^cdc2 protein, which was assumed to be limiting in the reaction.

p34^cdc2 [3] = target: T1, p34^cdc2; assay: ELISA based competition assay: p34^cdc2 kinase from cell extracts binding to a p107 30mer coated plate; design: endogenous in cells; HeLa per the general methods
From the text: An ELISA based assay was developed to measure the activity of p107 peptides and their derivatives. A 96-well cluster plate coated with the p107 30mer binds to p34^cdc2 kinase from cell extracts. This binding is easily detectable with anti-p34^cdc2 antibodies and can be used to quantitate the affinity of the p107 wild type and mutant peptides for the p34^cdc2 kinase in addition to the kinase inhibition assay described in Example 7. A summary of all modifications to the original p107 peptides and their effect on binding and kinase inhibition is presented in Table 1. The affinity of the p107 9mer peptide for p34^cdc2 kinase is approximately 10 μM as measured by the ELISA based competition assay, which is in agreement with the binding constant approximated from the kinase inhibition assay as described in Example 7.

HPV18-E7 protein = target: T2, HPV18-E7 protein (Human papillomavirus type 18, UniProt P06788); assay: biochemical; assay type: binding
T2 construct: made in house
T2 sequence (P06788 whole entry): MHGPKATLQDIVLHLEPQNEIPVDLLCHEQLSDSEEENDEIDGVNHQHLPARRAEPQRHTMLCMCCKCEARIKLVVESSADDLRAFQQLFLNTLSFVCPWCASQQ
Experimental: The association of bacterially expressed HPV18-E7 protein with the p107 30mer peptide was analyzed using an ELISA assay. In the experiment depicted in FIG. 3A, a 96-well cluster plate was coated with p107 30mer peptide and incubated with increasing concentration of a MBP-E7 fusion protein or the MBP protein as a control. […] In the experiment depicted in FIG. 3B, MBP-E7 fusion protein (100 ng) was incubated with a p107 30mer peptide-coated plate in the presence of increasing concentrations of free p107 9mer peptide.

HPV16-E7 protein = HPV16-E7 protein (Human papillomavirus type 16, UniProt P03129); conditions: CaSki cell extract, western blot
HPV16-E7 protein, sequence (P03129 whole entry, the tested form may be a part): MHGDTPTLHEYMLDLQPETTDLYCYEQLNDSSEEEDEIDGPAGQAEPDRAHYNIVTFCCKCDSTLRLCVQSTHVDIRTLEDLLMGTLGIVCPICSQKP
From the text: Rb and p107 form specific complexes with the adenovirus E1A oncoprotein and Rb forms a similar complex with the E7 oncoprotein human papillomavirus (HPV). In order to determine whether the p107 30mer peptide domain and Rb may interact with other tumor suppressor proteins or other cellular and viral ligands, p107 30mer peptide binding to cellular and bacterially expressed human papillomavirus (HPV)-E7 protein was examined. p107 30 amino acid peptide-sepharose, prepared as described in Example 2, was incubated with CaSki cell (HPV-16 positive cervical carcinoma) extract and assayed for the binding of E7 protein.

p34^cdc2 [4] = target: T1, p34^cdc2; assay: p107 30mer-sepharose pull-down from HeLa cell lysate, western blot with anti-p34^cdc2 antibody; assay type: binding; design: endogenous in cells; host or cells: HeLa
Experimental: as §2
In order to test whether the α-helix II domain is involved in the interaction of Rb, p107 and cyclin E with p34^cdc2, a 30 amino acid peptide from p107 (residues 692-721: […] [SEQ ID NO:11]) encompassing α-helix II, was synthesized and assayed for its ability to associate with p34^cdc2. […] The concentration of 30mer linked to the bead was 0.85 μmole/ml as determined by HPLC. […] The bound proteins were eluted with increasing concentrations of NaCl, separated by sodium dodecyl sulfate-polyacrylamidegel electrophoresis (SDS-PAGE) (12.5% gel) and transferred to polyvinylidene difluoride (PVDF) membranes. p34^cdc2 was detected by probing the membrane with anti-p34^cdc2 antibody, G6 (Gibco, BRL) (see, Draetta et al. (1988), supra).

[5] = Table 1 binding, assay not given, taken as ELISA competition for p34^cdc2 binding, read-out: IC50

Row | Molecule | inhibition at 50 µM (p34^cdc2 [2]) [%] | IC50 (p34^cdc2 [3]; [5]) [µM] | also measured
1 | CC[C@H](C)[C@H](NC(=O)[C@H](Cc1ccc(O)cc1)NC(=O)[C@H](Cc1ccccc1)NC(=O)[C@H](C)NC(=O)[C@H](CS)NC(=O)[C@H](CC(C)C)NC(=O)[C@H](CC(C)C)NC(=O)[C@H](CC(C)C)NC(=O)[C@H](CCC(N)=O)NC(=O)[C@H](CC(=O)O)NC(=O)[C@H](CC(C)C)NC(=O)[C@H](Cc1c[nH]cn1)NC(=O)[C@H](CCCNC(=N)N)NC(=O)[C@H](CC(=O)O)NC(=O)[C@H](CCCCN)NC(=O)[C@H](CCSC)NC(=O)[C@H](CC(C)C)NC(=O)[C@H](CC(=O)O)NC(=O)[C@@H]1CCCN1C(=O)[C@H](CS)NC(=O)[C@H](Cc1c[nH]cn1)NC(=O)[C@@H](NC(=O)[C@H](CC(C)C)NC(=O)[C@@H](NC(=O)[C@H](Cc1ccccc1)NC(=O)[C@H](CCC(=O)O)NC(=O)[C@@H](N)Cc1ccccc1)[C@@H](C)O)C(C)C)C(=O)N[C@@H](CCSC)C(=O)N[C@@H](C)C(=O)N[C@@H](CCCCN)C(=O)O [30mer] (H-FEFTLVHCPDLMKDRHLDQLLLCAFYIMAK-OH) |  |  | specific activity of peptide bound enzyme relative to the specific activity of the immune complex (p34^cdc2 [1]; normalized for the amount of p34^cdc2 protein): 1.4%
2 | C[C@H](NC(=O)[C@@H](N)CS)C(=O)N[C@@H](Cc1ccccc1)C(=O)N[C@@H](Cc1ccc(O)cc1)C(=O)O [NC4mer, CAFY] (H-CAFY-OH) | 0 |  | 
3 | AFYIMAK [N7mer, AFYIMAK] | 0 |  | 
4 | CAFYI [NC5mer, CAFYI] | 82 | 13 | 
5 | CAFYIGSPKK [NC5mer-SPKK, CAFYIGSPKK] | 80 |  | 
6 | DLMKDRHLDQLLLCAFYIMAK [21mer] | 70 |  | 
7 | KDRHLDQLLLCAFYIMAK [18mer, KDRHLDQLLLCAFYIMAK] | 80 |  | 
8 | LCAAYIMAK [715FA, LCAAYIMAK] | 0 | > 100 | 
9 | LCAFAIMAK [716YA, LCAFAIMAK] | 0 | 40 | 
10 | LCAFFIMAK [716YF, LCAFFIMAK] | 80 | 25 | 
11 | LCAFY [C5mer, LCAFY] | 0 |  | 
12 | LCAFYI [C6mer, LCAFYI] | 79 |  | 
13 | LCAFYIM [C7mer, LCAFYIM] | 70 |  | 
14 | LCAFYIMAK [9mer, LCAFYIMAK] | 90 | 9 | Kd (HPV18-E7 protein): ~0.001 µM; Kd (p34^cdc2 [2]; percent inhibition plotted versus peptide concentration, FIG. 2, read-out: kd calculated from the point of 50% inhibition of histone H1 kinase activity): ~10 µM; Kd (p34^cdc2 [3]; ELISA based competition assay, read-out: affinity for p34^cdc2 kinase): ~10 µM
15 | LCAFYIMQK [719AQ, LCAFYIMQK] | 75 |  | 
16 | LCAFYKMAK [717IK, LCAFYKMAK] | 0 | > 100 | 
17 | LCAKYIMAK [715FK, LCAKYIMAK] | 0 | > 100 | 
18 | LCAYYIMAK [715FY, LCAYYIMAK] | 20 | 45 | 
19 | LCEFYIMAK [714AE, LCEFYIMAK] | 0 | 23 | 
20 | LDQLLLCAFYIMAK [14mer, LDQLLLCAFYIMAK] | 80 |  | 
21 | LFAFYIMAK [713CF, LFAFYIMAK] | 60 | 15 | decrease in the peptide's ability to inhibit histone H1 kinase activity (p34^cdc2 [2]; versus 9mer): 30%
22 | PKKKRKVCAFYI [SV-NC5mer, PKKKRKVCAFYI] | 0 |  | 
23 | RKRCAFYI [PKG-NC5mer, RKRCAFYI] | 0 |  | 
24 | RRCAFYI [RR-NC5mer, RRCAFYI] | 0 |  | 
25 | SPKKGCAFYI [SPKK-NC5mer, SPKKGCAFYI] | 0 |  | 
26 | YIMAK [N5mer, YIMAK] | 0 |  | IC50 (p34^cdc2 [3]): > 100 µM
27 | p107 30mer-sepharose: p107 30mer covalently linked to CH-activated sepharose 4B (FEFTLVHCPDLMKDRHLDQLLLCAFYIMAK; cysteine pairing not given here; also: covalently linked to CH-activated sepharose 4B) |  |  | binding to HPV16-E7 protein (HPV16-E7 protein): did bind; binding to p34^cdc2 (p34^cdc2 [4]; HeLa cell lysate, western blot): binds; stability of the complex with p34^cdc2 to NaCl elution (p34^cdc2 [4]; elution with increasing concentrations of NaCl): stable to 2M NaCl; amount of p34^cdc2 associated relative to that within the immune complexes (p34^cdc2 [1]; western blot densitometry): ≥ 50 time greater
